From ChEMBL document CHEMBL1201862, “PubChem BioAssay data set” (2004) come the findings set out here.

Molecules are shown by their SMILES.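 Compound exposure: 48 hours, 5 concentrations, 96-well plates. GI50 = concentration required for 50% inhibition of growth.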 Activity calls are given as the source filed them. No stated cut-off is given here; in the data, active = GI50 up to about 1.1 µM and inactive = higher.

What all share (experiment): inhibition of tumour cell growth, NCI panel, 48 h
The test system of test [1] is Hs-578T.
Test [2] deals with NCI/ADR-RES.
In test [3] the test system is SR.
The subject of test [4] is SNB-75.
Test [5] relates to M14.
Test [6] deals with TK-10.
The subject of test [7] is MDA-N.
The subject of test [8] is SK-OV-3.
In test [9] the test system is ACHN.
Test [10] has as its system A498.
Test [11] concerns MCF7.
Test [12] deals with UACC-257.
For test [13], the system named is DMS-273.
The test system of test [14] is SNB-78.
Test [15] relates to DMS-114.
For test [16], the system named is XF498.
The subject of test [17] is KM-20L2.
Test [18] concerns M19-MEL.
Test [19] concerns DLD-1.
Test [20] has as its system LXFL 529.

Consider `CC(NC(=O)C(NC(=O)CNC(=O)OC(C)(C)C)C(C)C)C(=O)Oc1c(Cl)c(Cl)c(Cl)c(Cl)c1Cl` (configuration not stated), for which the GI50 was 20.1 µM (inactive) in test [1]; 17.5 µM (inactive) in test [2]; 71 µM (inactive) in test [3]; 28 µM (inactive) in test [4]; 18.8 µM (inactive) in [5]; 26.8 µM (inactive) in test [6]. Also, the GI50 is 25.1 µM (inactive) in test [7]; 21.5 µM (inactive) in [8]; 21.8 µM (inactive) in test [9]; 21.8 µM (inactive) in test [10]; 25.5 µM (inactive) in test [11]; 15.9 µM (inactive) in test [12].

Consider `CCOCC(=O)N(C)c1cccc2c3c(n(C)c12)CCCCC3`, for which the GI50 is > 100 µM (inactive) in test [2]; > 31.6 µM (inactive) in test [13]; > 100 µM (inactive) in test [14]; > 100 µM (inactive) in test [15]; > 46.1 µM (inactive) in test [4]; > 93.8 µM (inactive) in [16]. The GI50 in [17], in test [8], in test [18], in test [10], in test [19] and in [11] was > 100 µM (inactive) in each case. Moreover, the GI50 in test [12] is 1 µM (active).

Turning to `Cc1cc(OCC(O)CO)ccc1Cl` (configuration not stated), the GI50 was > 100 µM (inactive) in [13]; > 100 µM (inactive) in test [15]; 60.1 µM (inactive) in [3]; 87.3 µM (inactive) in test [4]; > 100 µM (inactive) in [5]; > 100 µM (inactive) in test [6]. The GI50 in test [17], in test [20], in test [8], in test [9], in test [18] and in [10] was > 100 µM (inactive) in each case. Moreover, the GI50 in test [19] and in [12] was > 100 µM (inactive) each time.

`CC1=CC2=C(C=O)C(=O)[C@](C)(O)[C@@H](O)C2=CO1`: the GI50 was > 53.8 µM (inactive) in test [2]; 28.9 µM (inactive) in test [13]; 38.5 µM (inactive) in test [14]; 13.8 µM (inactive) in test [4]; > 54.3 µM (inactive) in test [16]; 1.21 µM (inactive) in [17]. Further, the GI50 was 19.5 µM (inactive) in test [8]; 22.4 µM (inactive) in [18]; 24.3 µM (inactive) in [10]; 28.9 µM (inactive) in test [19]; 39.4 µM (inactive) in test [11]; 33.2 µM (inactive) in test [12].

For the compound `N#CCCN(CCC#N)c1ccc(/C=C2\N=C(c3cc([N+](=O)[O-])ccc3Cl)N(NC(=O)CC(=O)Nc3ccccc3Cl)C2=O)cc1`, the GI50 in test [13], in [14], in test [15], in test [3], in [16] and in test [5] was > 100 µM (inactive) in each case. The GI50 in test [6] was > 100 µM (inactive); in [17], 16.3 µM (inactive); in test [20] it was > 100 µM (inactive); in test [8] it was > 100 µM (inactive); in [9], > 100 µM (inactive); in test [18] it was > 100 µM (inactive). Besides, the GI50 in test [19] is > 100 µM (inactive).

For `CC1(C)CC2C(C1=O)C1(C)CCCC2(C)C1=O` (configuration not stated), the GI50 in test [1], in [2], in [3], in test [4], in [5] and in test [6] was > 100 µM (inactive) in each case. Further, the GI50 in test [7], in test [8], in [9], in test [11] and in test [12] was > 100 µM (inactive) throughout.

Regarding `O=[N+]([O-])c1ccc(CNC2=NNS(=O)(=O)c3ccccc32)cc1`, the GI50 in test [13] was > 100 µM (inactive); in test [14], > 100 µM (inactive); in test [15], > 100 µM (inactive); in [3] it was 31.6 µM (inactive); in test [16] it was > 100 µM (inactive); in test [5], > 100 µM (inactive). In addition, the GI50 in test [17] was > 100 µM (inactive); in test [20] it was 36.1 µM (inactive); in test [9], > 100 µM (inactive); in test [18], > 100 µM (inactive); in test [10], 32.1 µM (inactive); in test [19], > 100 µM (inactive). In addition, the GI50 in [12] is > 100 µM (inactive).

With `COc1ccc(NC(=O)/C(=C/c2ccc(N(CCC#N)CCC#N)cc2)NC(=O)c2cc([N+](=O)[O-])ccc2Cl)cc1`, the GI50 in [13] is 34.4 µM (inactive); in [14], > 100 µM (inactive); in test [3] it was 74.1 µM (inactive); in test [16], > 100 µM (inactive); in test [5] it was > 100 µM (inactive); in test [6], 66.1 µM (inactive). The GI50 in [17] was 36.2 µM (inactive); in test [20], 8.89 µM (inactive); in test [8] it was > 100 µM (inactive); in test [9], 10.1 µM (inactive); in test [18] it was 56.4 µM (inactive); in test [19], 15.3 µM (inactive).

For `Cc1nc(Nc2nnc(-c3cc([N+](=O)[O-])cc([N+](=O)[O-])c3C)o2)sc1C(=O)CC(=O)Cc1nc2ccc(Cl)cc2nc1O`, the GI50 in test [13] is 50.5 µM (inactive); in test [14] it was 93.5 µM (inactive); in test [15], > 100 µM (inactive); in test [3] it was 77.6 µM (inactive); in test [4] it was > 100 µM (inactive); in test [16], > 100 µM (inactive). In addition, the GI50 in test [5], in test [6], in [17], in test [20], in test [8] and in test [9] was > 100 µM (inactive) in each case. Further, the GI50 in test [18], in test [10] and in [12] was > 100 µM (inactive) in each case.

As to `CN(C)C(=S)/N=C1\SC(=N\c2ccccc2)/C(=N/c2ccccc2)N1c1ccc([N+](=O)[O-])cc1`, the GI50 in test [1], in test [2], in test [3], in [4], in test [5] and in test [7] was > 100 µM (inactive) throughout. Moreover, the GI50 in [8], in test [10] and in test [11] was > 100 µM (inactive) throughout.

`CN(C)C(=S)/N=c1\ss/c(=N\C(=S)N(C)C)n1C1CCCCC1`: the GI50 in [14] was 49.4 µM (inactive); in test [15], 0.452 µM (active); in test [3], > 100 µM (inactive); in test [4], 76.4 µM (inactive); in [5] it was > 100 µM (inactive); in test [6] it was > 100 µM (inactive). For the same compound, the GI50 is > 100 µM (inactive) in test [17]; > 100 µM (inactive) in test [8]; > 100 µM (inactive) in test [9]; 0.524 µM (active) in test [18]; > 100 µM (inactive) in [10]; > 100 µM (inactive) in test [12].

Consider `COC(=N)C(C)C`, for which the GI50 in [13], in [14], in test [15], in test [3], in [4] and in test [5] was > 100 µM (inactive) throughout. Moreover, the GI50 in [6], in test [17], in test [20], in [8], in [9] and in [18] was > 100 µM (inactive) throughout. Besides, the GI50 in test [19] and in [12] was > 100 µM (inactive) in each case.

Regarding `Cn1c2c(c3ccccc31)CCN(CCCN1CCN(c3ccccc3)CC1)C2=O`, the GI50 in [13] was 21.5 µM (inactive); in [15], 16.9 µM (inactive); in test [16], 12.6 µM (inactive); in test [5] it was 16.4 µM (inactive); in [6], 16.9 µM (inactive); in test [17] it was 12.8 µM (inactive). In addition, the GI50 was 17.9 µM (inactive) in test [20]; 19.9 µM (inactive) in [8]; 21.6 µM (inactive) in [9]; 19.5 µM (inactive) in [18]; 18.5 µM (inactive) in test [10]; 19.7 µM (inactive) in test [19].

`NC(CSC(=O)c1ccccc1)C(=O)O` (configuration not stated): the GI50 in test [1], in [2], in test [3], in test [4], in test [5] and in test [6] was > 100 µM (inactive) each time. Besides, the GI50 in test [7], in [8], in test [9], in test [10], in test [11] and in [12] was > 100 µM (inactive) in each case.

Take `O=C1C=C2SC3C[C@@]24CC1(O)[N+]1=c2c4c(c(O)c4c2=C(C=N4)CC1)N3`: the GI50 in test [2] was 0.887 µM (active); in test [13], 1.42 µM (inactive); in [14], 1.61 µM (inactive); in [15], 0.219 µM (active); in test [4] it was 1.83 µM (inactive); in test [16], 1.85 µM (inactive). Further, the GI50 in [17] was 0.313 µM (active); in test [8] it was 1.95 µM (inactive); in test [18], 0.285 µM (active); in test [10], 1.88 µM (inactive); in test [19] it was 1.11 µM (active); in [11], 0.278 µM (active). Also, in [12], the GI50 was 1.16 µM (inactive).
